In patent US8178506B2, “Oligomeric compounds and compositions for use in modulation of small non-coding RNAs” (Regulus Therapeutics Inc., priority 2003, dated 2012):
In the oligonucleotide strings, read from the 5' end, every base follows the letter of its sugar. An asterisk marks phosphorothioate; unmarked linkages are phosphodiester. Other units and linkages are bracketed, terminal groups are in braces. A string of capitals states the bases alone. e = 2'-O-(2-methoxyethyl) (MOE); [5mC] = 5-methylcytosine

What was measured:
preadipocytes = experiment: Caspase assay in preadipocytes; assay type: cell-based, human; details: untreated control set equal to 1.0
Excerpt: The effect of oligomeric compounds of the present invention targeting miRNAs was examined in preadipocytes (Zen-Bio, Inc., Research Triangle Park, N.C.) using the fluorometric caspase assay previously described in Example 11.

PEPCK-c = PEPCK-c mRNA expression in HepG2 cells; assay type: cell-based, human; details: HepG2, 100 nM oligomeric compound
leptin = experiment: Leptin secretion by adipocytes (ELISA); assay type: cell-based, human; details: adipocytes, 250 nM oligomeric compound, day nine post-transfection, relative to control (1.0); Table 16
[1] = test system: BJ, B16-F10, T47D, T47Dp53 and HeLa cells; experiment: Cell cycle assay (propidium iodide flow cytometry), cell line panel; assay type: cell-based; details: 150 nM oligomeric compound, 4.5 μg/ml LIPOFECTIN, after 72 hours, propidium iodide flow cytometry
[2] = Experiment 1, basal (no insulin)
[3] = Experiment 2, 1 nM insulin treated

## 327919 (antisense eG*eA*eA*eA*e[5mC]*e[5mC]*e[5mC]*eA*eG*e[5mC]*eA*eG*eA*e[5mC]*eA*eA*eT*eG*eT*eA*eG*e[5mC]*eT) [compound 327919]
preadipocytes
  Fold Increase over UTC (caspase activity): 1.3 fold over UTC
PEPCK-c; [2]
  PEPCK-c (% UTC): 71 % UTC
PEPCK-c; [3]
  PEPCK-c (% UTC): 105 % UTC
leptin
  Leptin (secretion): 1.44
[1]
  G1 (percentage of cells in phase of the cell cycle): 54.3%
  G2/M (percentage of cells in phase of the cell cycle): 15.4%
  S (percentage of cells in phase of the cell cycle): 30.3%
  SubG1 (percentage of cells in phase of the cell cycle): 10.8%
  aneuploid (percentage of cells): 16%

## 327922 (antisense eT*e[5mC]*eA*eG*eT*eT*eT*eT*eG*e[5mC]*eA*eT*eG*eG*eA*eT*eT*eT*eG*e[5mC]*eA*e[5mC]*eA) [compound 327922]
preadipocytes
  Fold Increase over UTC (caspase activity): 1.0 fold over UTC
PEPCK-c; [2]
  PEPCK-c (% UTC): 77 % UTC
PEPCK-c; [3]
  PEPCK-c (% UTC): 76 % UTC
leptin
  Leptin (secretion): 1.25
[1]
  G1 (percentage of cells in phase of the cell cycle): 50.4%
  G2/M (percentage of cells in phase of the cell cycle): 18.9%
  S (percentage of cells in phase of the cell cycle): 30.7%
  SubG1 (percentage of cells in phase of the cell cycle): 10%
  aneuploid (percentage of cells): 16.8%

## 327934 (antisense eG*eG*eT*eA*e[5mC]*eA*eA*eT*e[5mC]*eA*eA*e[5mC]*eG*eG*eT*e[5mC]*eG*eA*eT*eG*eG*eT) [compound 327934]
preadipocytes
  Fold Increase over UTC (caspase activity): 2.0 fold over UTC
PEPCK-c; [2]
  PEPCK-c (% UTC): 99 % UTC
PEPCK-c; [3]
  PEPCK-c (% UTC): 105 % UTC
leptin
  Leptin (secretion): 1.25
[1]
  G1 (percentage of cells in phase of the cell cycle): 54.4%
  G2/M (percentage of cells in phase of the cell cycle): 17.4%
  S (percentage of cells in phase of the cell cycle): 28.2%
  SubG1 (percentage of cells in phase of the cell cycle): 6.6%
  aneuploid (percentage of cells): 17%

## 327941 (antisense eA*eA*e[5mC]*e[5mC]*e[5mC]*eA*e[5mC]*e[5mC]*eG*eA*e[5mC]*eA*eG*e[5mC]*eA*eA*eT*eG*eA*eA*eT*eG*eT*eT) [compound 327941]
preadipocytes
  Fold Increase over UTC (caspase activity): 1.3 fold over UTC
PEPCK-c; [2]
  PEPCK-c (% UTC): 101 % UTC
PEPCK-c; [3]
  PEPCK-c (% UTC): 98 % UTC
leptin
  Leptin (secretion): 0.54
[1]
  G1 (percentage of cells in phase of the cell cycle): 57.2%
  G2/M (percentage of cells in phase of the cell cycle): 12.9%
  S (percentage of cells in phase of the cell cycle): 29.9%
  SubG1 (percentage of cells in phase of the cell cycle): 8.2%
  aneuploid (percentage of cells): 15.8%
